# Laboratory results from patent US8895581B2, “1H-imidazo[4,5-c]quinolines” (Boehringer Ingelheim International GmbH, priority 2010, dated 2014).
# pIC50: −log10 of the molar value.
# Target: Recombinant human PDK1 enzyme (aa 52-556) (Homo sapiens (Human), UniProt O15530)
# Test: PDK1 kinase assay
# Type: biochemical
# Settings: 25 μM ATP solution with gamma-P33-ATP, PDKtide substrate, 90 min at RT
# Method: The activity of the compounds according to the invention on the kinase PDK1 which inhibits the signal transduction pathway is determined in an in vitro kinase assay with recombinantly prepared protein:
# Recombinant human PDK1 enzyme (aa 52-556) linked at its N-terminal end to His6 is isolated from baculovirus-infected insect cells. Purified enzyme may be obtained for example from the University of Dundee, Scotland. The following components are combined in a well of a 96-well round-based dish (Greiner bio-one, No. 650101): • 1. 15 μL of compound to be tested in varying concentrations (e.g. starting at 10 μM, and diluted in steps of 1:5) in APT buffer (50 mM Tris/Cl pH7.5; 0.05% β-mercaptoethanol; 10 mM Mg-acetate; 0.0166% Tween 20; 3.33% DMSO) • 2. 15 μL His6-PDK1 (aa 52-556) 3.33 ng/well) and PDKtide (KTFCGTPEYLAPEVRRE […]), synthesised by Pepceuticals Limited, Nottingham, United Kingdom; 25 μM final concentration); His6-PDK1 and PDKtide are together diluted accordingly in assay buffer (50 mM tris pH 7.5, 0.05% β-mercaptoethanol, 10 mM Mg-acetate); PDKtide is present in this mixture as an 83.3 μM solution. These 30 μl are routinely incubated for 30 min at RT. • 3. 20 μL ATP solution (25 μM ATP with 1.0 μCi/well gamma-P33-ATP). The final concentration of Tween 20 is 0.005%.
# The reaction is started by adding the ATP solution and the mixture is incubated for 90 min at RT. At the start of the reaction the dishes are shaken gently. The reaction is stopped by the addition of 50 μL/well of 500 mM phosphoric acid (H3PO4) and incubated for about 20 min at RT. The precipitate is transferred by harvesting onto filter plates (96-well microtitre filter plate: UniFilter GF/C; Perkin Elmer; No. 6005174), then washed 6 times with 50 mM H3PO4 and dried at 60° C. Then the plate is stuck down with sealing tape, 25 μL/well of scintillation solution (Microscint 0; Perkin Elmer; No. 6013611) are added and the amount of P33 precipitated is measured using the Wallac Betacounter. The measured data are evaluated using Graphpad Prism software.
# Chain of Recombinant human PDK1 enzyme (aa 52-556) (O15530 52-556): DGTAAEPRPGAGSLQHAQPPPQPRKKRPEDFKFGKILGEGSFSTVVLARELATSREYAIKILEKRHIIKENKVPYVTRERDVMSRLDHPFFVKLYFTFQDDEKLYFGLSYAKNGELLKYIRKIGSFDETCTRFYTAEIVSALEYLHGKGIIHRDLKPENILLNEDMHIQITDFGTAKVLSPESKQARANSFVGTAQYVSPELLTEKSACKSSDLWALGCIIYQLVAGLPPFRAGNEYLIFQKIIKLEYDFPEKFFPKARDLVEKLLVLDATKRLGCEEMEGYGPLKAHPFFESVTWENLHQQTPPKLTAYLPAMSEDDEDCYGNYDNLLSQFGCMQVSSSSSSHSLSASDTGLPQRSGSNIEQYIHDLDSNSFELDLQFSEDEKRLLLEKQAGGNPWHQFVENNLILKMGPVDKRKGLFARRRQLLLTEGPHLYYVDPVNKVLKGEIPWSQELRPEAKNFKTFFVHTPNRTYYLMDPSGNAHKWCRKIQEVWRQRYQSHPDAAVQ
row,Compound,pIC50
1,"O=C(NCC#Cc1ccc2ncc3nc[nH]c3c2c1)c1cncn(Cc2ccc(F)c(F)c2)c1=O [I-1, 1-(3,4-difluoro-benzyl)-6-oxo-1,6-dihydro-pyrimidine-5-carboxylic acid [3-(1H-imidazo[4,5-c]quinolin-8-yl)-prop-2-ynyl]-amide]",9.00
2,O=C(NCC#Cc1ccc2ncc3ncn(CCO)c3c2c1)c1cncn(Cc2ccc(F)c(F)c2)c1=O [I-2],8.40
3,O=C(NCC#Cc1ccc2ncc3ncn(C4CCC4)c3c2c1)c1cncn(Cc2ccc(F)c(F)c2)c1=O [I-3],8.40
4,O=C(NCC#Cc1ccc2ncc3ncn(CCCO)c3c2c1)c1cncn(Cc2ccc(F)c(F)c2)c1=O [I-4],8.70
5,CN(C)CCn1cnc2cnc3ccc(C#CCNC(=O)c4cncn(Cc5ccc(F)c(F)c5)c4=O)cc3c21 [I-5],7.30
6,CN1CC[C@@H](n2cnc3cnc4ccc(C#CCNC(=O)c5cncn(Cc6ccc(F)c(F)c6)c5=O)cc4c32)C1 [I-6],7.59
7,CN1CC[C@H](n2cnc3cnc4ccc(C#CCNC(=O)c5cncn(Cc6ccc(F)c(F)c6)c5=O)cc4c32)C1 [I-7],7.74
8,CN(C)CCCn1cnc2cnc3ccc(C#CCNC(=O)c4cncn(Cc5ccc(F)c(F)c5)c4=O)cc3c21 [I-8],7.80
9,CN1CCC[C@@H](n2cnc3cnc4ccc(C#CCNC(=O)c5cncn(Cc6ccc(F)c(F)c6)c5=O)cc4c32)C1 [I-9],8.00
10,CN1CCC(n2cnc3cnc4ccc(C#CCNC(=O)c5cncn(Cc6ccc(F)c(F)c6)c5=O)cc4c32)CC1 [I-10],8.70
11,CC(C)N1CCC(n2cnc3cnc4ccc(C#CCNC(=O)c5cncn(Cc6ccc(F)c(F)c6)c5=O)cc4c32)CC1 [I-11],7.96
12,O=C(NCC#Cc1ccc2ncc3ncn([C@H]4CCCNC4)c3c2c1)c1cncn(Cc2ccc(F)c(F)c2)c1=O [I-12],8.05
13,O=C(NCC#Cc1ccc2ncc3ncn([C@@H]4CCNC4)c3c2c1)c1cncn(Cc2ccc(F)c(F)c2)c1=O [I-13],7.80
14,O=C(NCC#Cc1ccc2ncc3ncn(C4CCNCC4)c3c2c1)c1cncn(Cc2ccc(F)c(F)c2)c1=O [I-14],8.10
15,O=C(NCC#Cc1ccc2ncc3ncn([C@H]4CCNC4)c3c2c1)c1cncn(Cc2ccc(F)c(F)c2)c1=O [I-15],7.55
16,Cc1cc(C(=O)NCC#Cc2ccc3ncc4nc(C)n(C(C)C)c4c3c2)c(=O)n([C@H](C)c2ccc(F)c(F)c2)n1 [II-1],8.70
17,Cc1nc2cnc3ccc(C#CCNC(=O)c4cccn(Cc5ccccc5)c4=O)cc3c2n1C(C)C [II-2],8.10
18,Cc1nc2cnc3ccc(C#CCNC(=O)c4cccn(Cc5ccc(F)c(F)c5)c4=O)cc3c2n1C(C)C [II-3],8.70
19,Cc1nc2cnc3ccc(C#CCNC(=O)c4cc(Cl)nn(Cc5ccc(F)c(F)c5)c4=O)cc3c2n1C(C)C [II-4],8.30
20,CCOc1cc(C(=O)NCC#Cc2ccc3ncc4nc(C)n(C(C)C)c4c3c2)c(=O)n(Cc2ccc(F)c(F)c2)n1 [II-5],8.40
21,Cc1nc2cnc3ccc(C#CCNC(=O)c4cccn([C@H](CO)c5cccc(F)c5)c4=O)cc3c2n1C(C)C [II-6],9.00
22,Cc1nc2cnc3ccc(C#CCNC(=O)c4cccn([C@H](C)c5ccc(F)c(F)c5)c4=O)cc3c2n1C(C)C [II-7],7.26
23,Cc1nc2cnc3ccc(C#CCNC(=O)c4cccn([C@H](C)C5CCCCC5)c4=O)cc3c2n1C(C)C [II-8],6.29
24,Cc1nc2cnc3ccc(C#CCNC(=O)c4cccn([C@H](CO)c5ccc(F)c(F)c5)c4=O)cc3c2n1C(C)C [II-9],8.70
25,Cc1nc2cnc3ccc(C#CCNC(=O)c4cncn(Cc5ccc(F)c(F)c5)c4=O)cc3c2n1C(C)C [II-10],8.70
26,Cc1cc(C(=O)NCC#Cc2ccc3ncc4nc(C)n(C(C)C)c4c3c2)c(=O)n([C@@H](C)c2ccc(F)c(F)c2)n1 [II-11],7.15

row,Compound,pIC50
1,CCc1c(C(=O)NCC#Cc2ccc3ncc4nc(C)n(C(C)C)c4c3c2)c(=O)n(Cc2ccc(F)c(F)c2)n1C [II-12],8.30
2,Cc1nc2cnc3ccc(C#CCNC(=O)c4cccn([C@@H](C)C5CCCCC5)c4=O)cc3c2n1C(C)C [II-14],7.47
3,Cc1nc2cnc3ccc(C#CCNC(=O)c4c(C)n(C)n(C(C)c5ccc(F)c(F)c5)c4=O)cc3c2n1C(C)C (stereo not drawn) [II-15],8.30
4,Cc1nc2cnc3ccc(C#CCNC(=O)c4c(C)n(C)n(Cc5ccc(F)c(F)c5)c4=O)cc3c2n1C(C)C [II-16],8.30
5,Cc1nc2cnc3ccc(C#CCNC(=O)c4cccn([C@@H](C)c5ccc(F)c(F)c5)c4=O)cc3c2n1C(C)C [II-17],9.00
6,Cc1nc2cnc3ccc(C#CCNC(=O)c4cccn(CC5CCCCC5)c4=O)cc3c2n1C(C)C [II-18],7.85
7,COc1cc(C(=O)NCC#Cc2ccc3ncc4nc(C)n(C(C)C)c4c3c2)c(=O)n(Cc2ccc(F)c(F)c2)n1 [II-19],9.00
8,Cc1nc2cnc3ccc(C#CCNC(=O)c4cccn([C@@H](CO)c5ccccc5)c4=O)cc3c2n1C(C)C [II-21],8.70
9,Cc1nc2cnc3ccc(C#CCNC(=O)c4cccn([C@@H](CN)c5ccccc5)c4=O)cc3c2n1C(C)C [II-22],7.80
10,Cc1nc2cnc3ccc(C#CCNC(=O)c4cccn(CC5C[C@@H]6CC[C@H]5C6)c4=O)cc3c2n1C(C)C (stereo partly drawn) [II-23],7.82
11,Cc1nc2cnc3ccc(C#CCNC(=O)c4cccn(CC5CCOCC5)c4=O)cc3c2n1C(C)C [II-24],6.23
12,Cc1nc2cnc3ccc(C#CCNC(=O)c4cccn(CC5CCCCO5)c4=O)cc3c2n1C(C)C (stereo not drawn) [II-25],5.99
13,Cc1nc2cnc3ccc(C#CCNC(=O)c4cccn(CC5CCCC5)c4=O)cc3c2n1C(C)C [II-26],7.57
14,Cc1nc2cnc3ccc(C#CCNC(=O)c4cccn(CC5(O)CCCCC5)c4=O)cc3c2n1C(C)C [II-27],5.96
15,Cc1nc2cnc3ccc(C#CCNC(=O)c4cccn(C[C@H]5CCCC[C@H]5O)c4=O)cc3c2n1C(C)C [II-28],6.66
16,Cc1nc2cnc3ccc(C#CCNC(=O)c4cccn(CC5CCCOC5)c4=O)cc3c2n1C(C)C (stereo not drawn) [II-29],6.69
17,Cc1nc2cnc3ccc(C#CCNC(=O)c4cccn([C@@H](CN)c5ccc(F)c(F)c5)c4=O)cc3c2n1C(C)C [II-30],8.70
18,Cc1nc2cnc3ccc(C#CCNC(=O)c4cccn(Cc5ccc(F)c(F)c5)c4=O)cc3c2n1C1CCN(C(C)C)CC1 [II-31],8.10
19,Cc1nc2cnc3ccc(C#CCNC(=O)c4cccn([C@@H](C)c5ccc(F)c(F)c5)c4=O)cc3c2n1C1CCN(C(C)C)CC1 [II-32],8.52
20,Cc1nc2cnc3ccc(C#CCNC(=O)c4cccn(Cc5ccc(F)c(F)c5)c4=O)cc3c2n1C1CCN(C)CC1 [II-34],8.22
21,CC(C)N1CCC(n2cnc3cnc4ccc(C#CCNC(=O)c5cccn(Cc6ccc(F)c(F)c6)c5=O)cc4c32)CC1 [II-35],8.15
22,O=C(NCC#Cc1ccc2ncc3ncn([C@@H]4CCNC4)c3c2c1)c1cccn([C@H](CO)c2ccccc2)c1=O [III-1],7.74
23,CC(C)N1CCC(n2cnc3cnc4ccc(C#CCNC(=O)c5cccn([C@@H](C)c6ccc(F)c(F)c6)c5=O)cc4c32)CC1 [III-2],8.70
24,Cc1cc(C(=O)NCC#Cc2ccc3ncc4ncn([C@H]5CC[C@@H](N(C)C)CC5)c4c3c2)c(=O)n(Cc2ccc(F)c(F)c2)n1 [III-3],7.82
25,Cc1nc2cnc3ccc(C#CCNC(=O)c4ccnn(Cc5ccc(F)c(F)c5)c4=O)cc3c2n1C1CCN(C(C)C)CC1 [III-4],7.68
